Source: US9499467B2, “Ortho-fluoro substituted compounds for the treatment of metabolic diseases” (CALDAN THERAPEUTICS LIMITED, priority 2011, dated 2016)

The compounds below were run against T1, GPR40 (Homo sapiens, UniProt O14842) (assay: Calcium mobilization in GPR40-transfected cells). Conditions: calcium mobilization in GPR40-transfed cells.
T1 construct: expressed in transfected cells
Assay type: cell-based
Protocol: The compounds were tested for their ability to mobilize calcium in GPR40-transfed cells as described by Christiansen et al. (J. Med. Chem. 2011, 54, 6691-6703).

T1 sequence (O14842 whole entry): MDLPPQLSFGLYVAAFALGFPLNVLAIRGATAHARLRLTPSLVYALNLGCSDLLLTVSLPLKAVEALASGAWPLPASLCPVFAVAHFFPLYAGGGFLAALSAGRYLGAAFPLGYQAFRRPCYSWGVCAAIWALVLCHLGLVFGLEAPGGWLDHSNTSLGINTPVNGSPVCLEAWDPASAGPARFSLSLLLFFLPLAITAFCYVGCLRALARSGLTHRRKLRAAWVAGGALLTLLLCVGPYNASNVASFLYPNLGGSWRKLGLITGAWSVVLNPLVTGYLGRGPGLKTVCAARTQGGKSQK

Row | Structure (SMILES) | GPR40 activity (pEC50)
1 | O=C(O)CCc1ccc(C#Cc2ccccc2)cc1F [Example 1, 3-(2-Fluoro-4-(phenylethynyl)phenyl)propanoic acid] | 7.48
2 | C=C(C)C#Cc1ccc(CCC(=O)O)c(F)c1 [Example 2, 3-(2-Fluoro-4-(3-methylbut-3-en-1-yn-1-yl)phenyl)propanoic acid] | 7.09
3 | C/C=C(/C)C#Cc1ccc(CCC(=O)O)c(F)c1 [Example 3, (Z)-3-(2-Fluoro-4-(3-methylpent-3-en-1-yn-1-yl)phenyl)propanoic acid] | 7.69
4 | C/C=C(\C)C#Cc1ccc(CCC(=O)O)c(F)c1 [Example 4, (E)-3-(2-Fluoro-4-(3-methylpent-3-en-1-yn-1-yl)phenyl)propanoic acid] | 7.43
5 | Cc1ccccc1C#Cc1ccc(CCC(=O)O)c(F)c1 [Example 5, 3-(2-Fluoro-4-(o-tolylethynyl)phenyl)propanoic acid] | 7.48
6 | Cc1ccc(C#N)cc1C#Cc1ccc(CCC(=O)O)c(F)c1 [Example 7, 3-(4-((5-Cyano-2-methylphenyl)ethynyl)-2-fluorophenyl)propanoic acid] | 7.77
7 | CS(=O)(=O)Cc1ccccc1C#Cc1ccc(CCC(=O)O)c(F)c1 [Example 8, 3-(2-Fluoro-4-((2-((methylsulfonyl)methyl)phenyl)ethynyl)phenyl)propanoic acid] | 5.84
8 | CS(=O)(=O)Cc1cccc(C#Cc2ccc(CCC(=O)O)c(F)c2)c1 [Example 9, 3-(2-Fluoro-4-((3-((methylsulfonyl)methyl)phenyl)ethynyl)phenyl)propanoic acid] | 5.71
9 | O=C(O)CCc1c(F)cc(C#Cc2ccccc2)cc1F [Example 10, 3-(2,6-Difluoro-4-(phenylethynyl)phenyl)propanoic acid] | 6.85
10 | O=C(O)CCc1ccc(C#Cc2ccccc2)c(F)c1 [Example 11, 3-(3-Fluoro-4-(phenylethynyl)phenyl)propanoic acid] | 6.84
11 | C/C(C#Cc1ccc(CCC(=O)O)c(F)c1)=C/CO [Example 12, (Z)-3-(2-Fluoro-4-(5-hydroxy-3-methylpent-3-en-1-yn-1-yl)phenyl)propanoic acid] | 6.37
12 | O=C(O)CCc1ccc(C#Cc2cc(Cl)cc(Cl)c2)cc1F [Example 13, 3-(4-((3,5-Dichlorophenyl)ethynyl)-2-fluorophenyl)propanoic acid] | 7.42
13 | O=C(O)CCc1ccc(C#Cc2cc(F)ccc2C(F)F)cc1F [Example 14, 3-(4-((2-(Difluoromethyl)-5-fluorophenyl)ethynyl)-2-fluorophenyl)propanoic acid] | 7.74
